Drawing on patent US9340590B2 (priority 2011, dated 2016), this text covers IC50 for eight compounds.

The structures appear in SMILES notation. Positions of bridges follow the written chain, without caps; N, C: chain ends. Non-standard residues stand in square brackets, D forms with d. Residues, ends and D or L forms follow the SMILES beside them. *: point of attachment. hCit = NC(=O)NCCCC[C@H](N)C(=O)O; Cit = NC(=O)NCCC[C@H](N)C(=O)O; Pent4ynoyl = C#CCCC(=O)*; Abu = CC[C@H](N)C(=O)O; Dap = NC[C@H](N)C(=O)O

Experiment in all cases: cell-based
For test [1], the target named is hNav1.7 (Homo sapiens, UniProt Q15858). It counts as cell-based. The following applies: IonWorks Quattro, use-dependent block, hNav1.7; read-out: IWQ Use Nav1.7. A general note: The patch-clamp technique gives a direct electrical read-out from membranes.
Test [2] deals with hNav1.5 (Homo sapiens, UniProt Q14524). Conditions: IonWorks Quattro, use-dependent block, hNav1.5; read-out: IWQ Use Nav1.5.
hNav1.5, sequence (Q14524 whole entry, looked up): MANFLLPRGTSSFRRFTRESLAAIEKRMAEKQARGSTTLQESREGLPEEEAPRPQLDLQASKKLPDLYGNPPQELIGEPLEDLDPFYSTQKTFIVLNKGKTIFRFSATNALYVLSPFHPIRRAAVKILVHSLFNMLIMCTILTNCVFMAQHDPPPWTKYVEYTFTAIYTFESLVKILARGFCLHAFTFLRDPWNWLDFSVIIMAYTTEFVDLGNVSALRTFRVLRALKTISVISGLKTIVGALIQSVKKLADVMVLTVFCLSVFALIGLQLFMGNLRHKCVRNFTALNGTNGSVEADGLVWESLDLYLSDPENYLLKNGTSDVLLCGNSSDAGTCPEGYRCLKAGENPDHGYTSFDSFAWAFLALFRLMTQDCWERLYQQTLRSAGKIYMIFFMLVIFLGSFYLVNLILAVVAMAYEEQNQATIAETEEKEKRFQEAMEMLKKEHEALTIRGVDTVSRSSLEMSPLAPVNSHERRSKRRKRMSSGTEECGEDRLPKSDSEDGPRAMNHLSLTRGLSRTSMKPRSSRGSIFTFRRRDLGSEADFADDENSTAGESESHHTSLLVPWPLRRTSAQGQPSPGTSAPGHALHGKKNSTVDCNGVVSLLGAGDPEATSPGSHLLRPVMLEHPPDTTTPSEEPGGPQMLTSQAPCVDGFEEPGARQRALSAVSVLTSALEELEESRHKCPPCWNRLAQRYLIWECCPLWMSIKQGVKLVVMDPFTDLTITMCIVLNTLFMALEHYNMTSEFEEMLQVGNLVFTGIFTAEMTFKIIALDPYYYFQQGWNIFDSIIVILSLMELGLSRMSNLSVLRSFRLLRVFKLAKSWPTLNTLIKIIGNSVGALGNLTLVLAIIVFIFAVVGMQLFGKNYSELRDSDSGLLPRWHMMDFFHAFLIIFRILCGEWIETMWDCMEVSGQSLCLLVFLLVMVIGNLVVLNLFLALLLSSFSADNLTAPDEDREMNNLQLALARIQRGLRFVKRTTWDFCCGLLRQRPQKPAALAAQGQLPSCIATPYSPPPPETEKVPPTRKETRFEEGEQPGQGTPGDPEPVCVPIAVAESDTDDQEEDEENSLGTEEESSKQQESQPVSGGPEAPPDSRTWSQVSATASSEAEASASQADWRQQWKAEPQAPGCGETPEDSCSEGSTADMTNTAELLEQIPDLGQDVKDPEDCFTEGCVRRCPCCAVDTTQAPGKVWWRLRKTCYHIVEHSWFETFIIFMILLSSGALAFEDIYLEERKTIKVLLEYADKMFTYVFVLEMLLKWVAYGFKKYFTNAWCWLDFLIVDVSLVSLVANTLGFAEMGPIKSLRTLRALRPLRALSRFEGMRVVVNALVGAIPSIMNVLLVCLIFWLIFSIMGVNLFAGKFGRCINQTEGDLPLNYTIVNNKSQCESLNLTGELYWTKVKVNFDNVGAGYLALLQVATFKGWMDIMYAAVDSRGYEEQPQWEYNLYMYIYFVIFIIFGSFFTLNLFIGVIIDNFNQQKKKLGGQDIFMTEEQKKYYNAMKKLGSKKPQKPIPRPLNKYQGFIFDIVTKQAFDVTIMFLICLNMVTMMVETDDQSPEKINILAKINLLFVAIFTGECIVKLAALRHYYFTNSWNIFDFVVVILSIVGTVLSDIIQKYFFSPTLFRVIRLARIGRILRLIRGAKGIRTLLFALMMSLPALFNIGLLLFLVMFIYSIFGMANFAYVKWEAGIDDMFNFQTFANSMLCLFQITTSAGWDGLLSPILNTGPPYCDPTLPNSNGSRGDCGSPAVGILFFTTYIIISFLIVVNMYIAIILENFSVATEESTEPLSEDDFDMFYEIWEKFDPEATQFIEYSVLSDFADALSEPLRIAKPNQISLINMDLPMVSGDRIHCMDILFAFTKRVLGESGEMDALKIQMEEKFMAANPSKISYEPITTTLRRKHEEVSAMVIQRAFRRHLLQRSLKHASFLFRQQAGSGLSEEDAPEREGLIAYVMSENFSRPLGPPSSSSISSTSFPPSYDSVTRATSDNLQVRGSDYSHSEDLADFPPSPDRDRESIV
The target of test [3] is hNav1.3 (Homo sapiens, UniProt Q9NY46). Conditions: IonWorks Quattro, use-dependent block, hNav1.3; read-out: IWQ Use Nav1.3.
hNav1.3, sequence (Q9NY46 whole entry, looked up): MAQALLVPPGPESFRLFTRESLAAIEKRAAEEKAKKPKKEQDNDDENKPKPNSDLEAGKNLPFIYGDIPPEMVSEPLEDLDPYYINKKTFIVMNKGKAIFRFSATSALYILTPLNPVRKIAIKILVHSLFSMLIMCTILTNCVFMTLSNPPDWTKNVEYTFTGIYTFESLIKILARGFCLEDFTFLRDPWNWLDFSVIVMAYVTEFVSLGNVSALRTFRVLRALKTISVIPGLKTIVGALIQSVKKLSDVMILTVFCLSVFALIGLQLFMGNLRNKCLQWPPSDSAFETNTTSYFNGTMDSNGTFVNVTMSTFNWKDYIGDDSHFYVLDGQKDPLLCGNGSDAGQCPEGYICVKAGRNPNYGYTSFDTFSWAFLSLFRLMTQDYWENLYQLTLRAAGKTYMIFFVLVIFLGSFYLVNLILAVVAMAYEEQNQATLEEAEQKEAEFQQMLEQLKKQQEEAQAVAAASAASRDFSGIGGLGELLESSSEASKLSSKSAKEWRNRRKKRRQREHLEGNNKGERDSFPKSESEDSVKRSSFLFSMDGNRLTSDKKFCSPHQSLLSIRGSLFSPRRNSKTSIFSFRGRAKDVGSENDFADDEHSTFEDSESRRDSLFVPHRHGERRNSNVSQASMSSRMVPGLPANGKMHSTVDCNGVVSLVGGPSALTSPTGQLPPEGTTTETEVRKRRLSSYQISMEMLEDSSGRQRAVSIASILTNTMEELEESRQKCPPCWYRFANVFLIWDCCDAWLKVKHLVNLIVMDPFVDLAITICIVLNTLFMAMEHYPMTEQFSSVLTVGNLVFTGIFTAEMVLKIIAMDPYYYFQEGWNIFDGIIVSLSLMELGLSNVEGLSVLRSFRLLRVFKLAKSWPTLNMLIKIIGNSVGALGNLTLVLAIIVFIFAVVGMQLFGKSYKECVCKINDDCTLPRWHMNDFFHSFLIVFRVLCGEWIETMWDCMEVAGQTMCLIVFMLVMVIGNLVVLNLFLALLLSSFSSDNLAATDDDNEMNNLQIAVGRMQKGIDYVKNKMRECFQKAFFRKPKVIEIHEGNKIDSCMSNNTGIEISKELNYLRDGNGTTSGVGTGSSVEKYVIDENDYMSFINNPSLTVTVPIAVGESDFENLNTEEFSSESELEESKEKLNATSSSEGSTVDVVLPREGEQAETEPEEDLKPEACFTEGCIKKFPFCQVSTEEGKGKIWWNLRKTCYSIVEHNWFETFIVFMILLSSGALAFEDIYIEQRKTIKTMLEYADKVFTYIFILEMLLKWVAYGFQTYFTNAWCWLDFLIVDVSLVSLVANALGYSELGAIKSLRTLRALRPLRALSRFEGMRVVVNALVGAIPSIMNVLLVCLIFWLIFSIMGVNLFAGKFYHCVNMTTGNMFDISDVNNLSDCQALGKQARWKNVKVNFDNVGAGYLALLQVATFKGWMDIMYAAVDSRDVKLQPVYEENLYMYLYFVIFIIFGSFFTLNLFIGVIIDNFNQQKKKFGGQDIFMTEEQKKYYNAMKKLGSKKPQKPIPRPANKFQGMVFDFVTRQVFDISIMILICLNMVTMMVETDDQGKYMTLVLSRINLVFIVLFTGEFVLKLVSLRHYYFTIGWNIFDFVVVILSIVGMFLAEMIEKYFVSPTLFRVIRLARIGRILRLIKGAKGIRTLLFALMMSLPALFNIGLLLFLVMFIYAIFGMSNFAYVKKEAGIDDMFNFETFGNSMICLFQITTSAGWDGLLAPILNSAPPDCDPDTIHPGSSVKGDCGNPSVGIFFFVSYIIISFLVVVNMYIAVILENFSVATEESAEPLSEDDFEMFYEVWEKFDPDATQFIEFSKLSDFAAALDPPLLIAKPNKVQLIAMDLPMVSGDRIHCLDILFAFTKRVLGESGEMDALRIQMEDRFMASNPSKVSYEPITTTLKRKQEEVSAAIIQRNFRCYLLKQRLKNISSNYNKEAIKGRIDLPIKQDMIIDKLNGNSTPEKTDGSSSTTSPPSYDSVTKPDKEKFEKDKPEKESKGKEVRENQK

`CC[C@H](C)[C@@H]1NC(=O)[C@@H]2CSSC[C@@H]3NC(=O)[C@H](C(C)C)NC(=O)[C@H](CC(C)C)NC(=O)[C@H](CC(N)=O)NC(=O)[C@@H]4CCCN4C(=O)[C@H](CCCNC(=N)N)NC(=O)[C@H](CSSC[C@H](NC(=O)[C@@H](N)CC(=O)O)C(=O)N[C@@H](CC(C)C)C(=O)NCC(=O)N[C@@H](C)C(=O)N[C@@H](CCSC)C(=O)N[C@@H](CCCNC(=N)N)C(=O)N[C@@H](CCCCN)C(=O)N2)NC(=O)[C@H](CSSC[C@@H](C(=O)N[C@@H](CCCCN)C(=O)N[C@@H](Cc2ccc(O)cc2)C(=O)N[C@H](C(=O)N[C@@H](Cc2ccccc2)C(N)=O)C(C)C)NC(=O)[C@H](Cc2c[nH]c4ccccc24)NC(=O)[C@H](CN)NC(=O)[C@H](Cc2c[nH]cn2)NC(=O)[C@H]([C@@H](C)O)NC(=O)[C@H](CCCNC(=N)N)NC(=O)[C@H](CO)NC3=O)NC(=O)[C@H](CCCCN)NC(=O)[C@H](CC(=O)O)NC(=O)[C@H](CC(N)=O)NC(=O)[C@H](CC(=O)O)NC(=O)[C@@H]2CCCN2C1=O` [compound 747] (H-DCLGAMRKCIPDNDKCCRPNLVCSRTH[Dap]WCKYVF-NH2; disulfide 2-17, 9-23, 16-30): the IC50 was found to be 0.37 µM in test [1], 38.3 µM in test [2] and 0.78 µM in test [3].

For the compound `CC[C@H](C)[C@@H]1NC(=O)[C@@H]2CSSC[C@@H]3NC(=O)[C@H](C(C)C)NC(=O)[C@H](CC(C)C)NC(=O)[C@H](CC(N)=O)NC(=O)[C@@H]4CCCN4C(=O)[C@H](CCCNC(=N)N)NC(=O)[C@H](CSSC[C@H](NC(=O)[C@@H](N)CC(=O)O)C(=O)N[C@@H](CC(C)C)C(=O)NCC(=O)N[C@@H](C)C(=O)N[C@@H](CCSC)C(=O)N[C@@H](CCCNC(=N)N)C(=O)N[C@@H](CCCCN)C(=O)N2)NC(=O)[C@H](CSSC[C@@H](C(=O)N[C@@H](CCCCN)C(=O)N[C@@H](Cc2ccc(O)cc2)C(=O)N[C@H](C(=O)N[C@@H](Cc2ccccc2)C(N)=O)C(C)C)NC(=O)[C@H](Cc2c[nH]c4ccccc24)NC(=O)[C@H](CCCNC(N)=O)NC(=O)[C@H](Cc2c[nH]cn2)NC(=O)[C@H]([C@@H](C)O)NC(=O)[C@H](CCCNC(=N)N)NC(=O)[C@H](CO)NC3=O)NC(=O)[C@H](CCCCN)NC(=O)[C@H](CC(=O)O)NC(=O)[C@H](CC(N)=O)NC(=O)[C@H](CC(=O)O)NC(=O)[C@@H]2CCCN2C1=O` [compound 748] (H-DCLGAMRKCIPDNDKCCRPNLVCSRTH[Cit]WCKYVF-NH2; disulfide 2-17, 9-23, 16-30), the IC50 in test [1] turned out to be 0.87 µM; in test [2], 24.2 µM; in test [3], 2.7 µM.

Turning to `CC[C@H](C)[C@@H]1NC(=O)[C@@H]2CSSC[C@@H]3NC(=O)[C@H](C(C)C)NC(=O)[C@H](CC(C)C)NC(=O)[C@H](CC(N)=O)NC(=O)[C@@H]4CCCN4C(=O)[C@H](CCCNC(=N)N)NC(=O)[C@H](CSSC[C@H](NC(=O)[C@@H](N)CC(=O)O)C(=O)N[C@@H](CC(C)C)C(=O)NCC(=O)N[C@@H](C)C(=O)N[C@@H](CCSC)C(=O)N[C@@H](CCCNC(=N)N)C(=O)N[C@@H](CCCCN)C(=O)N2)NC(=O)[C@H](CSSC[C@@H](C(=O)N[C@@H](CCCCN)C(=O)N[C@@H](Cc2ccc(O)cc2)C(=O)N[C@H](C(=O)N[C@@H](Cc2ccccc2)C(N)=O)C(C)C)NC(=O)[C@H](Cc2c[nH]c4ccccc24)NC(=O)[C@H](CCCCNC(N)=O)NC(=O)[C@H](Cc2c[nH]cn2)NC(=O)[C@H]([C@@H](C)O)NC(=O)[C@H](CCCNC(=N)N)NC(=O)[C@H](CO)NC3=O)NC(=O)[C@H](CCCCN)NC(=O)[C@H](CC(=O)O)NC(=O)[C@H](CC(N)=O)NC(=O)[C@H](CC(=O)O)NC(=O)[C@@H]2CCCN2C1=O` [compound 749] (H-DCLGAMRKCIPDNDKCCRPNLVCSRTH[hCit]WCKYVF-NH2; disulfide 2-17, 9-23, 16-30), the IC50 turned out to be 0.79 µM in test [1], 20.3 µM in test [2] and 2.3 µM in test [3].

Turning to `CC[C@H](C)[C@@H]1NC(=O)[C@@H]2CSSC[C@@H]3NC(=O)[C@H](C(C)C)NC(=O)[C@H](CC(C)C)NC(=O)[C@H](CC(N)=O)NC(=O)[C@@H]4CCCN4C(=O)[C@H](CCCNC(=N)N)NC(=O)[C@H](CSSC[C@H](NC(=O)[C@@H](N)CC(=O)O)C(=O)N[C@@H](CC(C)C)C(=O)NCC(=O)NCC(=O)N[C@@H](C(C)C)C(=O)N[C@@H](CCCNC(=N)N)C(=O)N[C@@H](CCCCN)C(=O)N2)NC(=O)[C@H](CSSC[C@@H](C(=O)N[C@@H](CCCCN)C(=O)N[C@@H](Cc2ccc(O)cc2)C(=O)N[C@H](C(=O)N[C@@H](Cc2ccccc2)C(N)=O)C(C)C)NC(=O)[C@H](Cc2c[nH]c4ccccc24)NC(=O)[C@H](CCCCN)NC(=O)[C@H](Cc2c[nH]cn2)NC(=O)[C@H]([C@@H](C)O)NC(=O)[C@H](CCCNC(=N)N)NC(=O)[C@H](CO)NC3=O)NC(=O)[C@H](CCCCN)NC(=O)[C@H](CC(=O)O)NC(=O)[C@H](CC(N)=O)NC(=O)[C@H](CC(=O)O)NC(=O)[C@@H]2CCCN2C1=O` [compound 751] (H-DCLGGVRKCIPDNDKCCRPNLVCSRTHKWCKYVF-NH2; disulfide 2-17, 9-23, 16-30), the IC50 is over 5 µM in test [1], 25.5 µM in test [2] and over 5 µM in test [3].

For the compound `CC[C@H](C)[C@@H]1NC(=O)CNC(=O)CNC(=O)[C@H](CC(C)C)NC(=O)[C@@H](NC(=O)[C@@H](N)CC(=O)O)CSSC[C@@H]2NC(=O)[C@@H]3CSSC[C@@H](C(=O)N[C@@H](CCCCN)C(=O)N[C@@H](Cc4ccc(O)cc4)C(=O)N[C@H](C(=O)N[C@@H](Cc4ccccc4)C(N)=O)C(C)C)NC(=O)[C@H](Cc4c[nH]c5ccccc45)NC(=O)[C@H](CCCCN)NC(=O)[C@H](Cc4c[nH]cn4)NC(=O)[C@H]([C@@H](C)O)NC(=O)[C@H](CCCNC(=N)N)NC(=O)[C@H](CO)NC(=O)[C@H](CSSC[C@H](NC(=O)[C@H](CCCCN)NC(=O)[C@H](CCCNC(=N)N)NC1=O)C(=O)N[C@@H]([C@@H](C)CC)C(=O)N1CCC[C@H]1C(=O)N[C@@H](CC(=O)O)C(=O)N[C@@H](CC(N)=O)C(=O)N[C@@H](CC(=O)O)C(=O)N[C@@H](CCCCN)C(=O)N3)NC(=O)[C@H](C(C)C)NC(=O)[C@H](CC(C)C)NC(=O)[C@H](CC(N)=O)NC(=O)[C@@H]1CCCN1C(=O)[C@H](CCCNC(=N)N)NC2=O` [compound 752] (H-DCLGGIRKCIPDNDKCCRPNLVCSRTHKWCKYVF-NH2; disulfide 2-17, 9-23, 16-30), the IC50 is over 5 µM in test [1], 25.4 µM in test [2] and over 5 µM in test [3].

For `CC(C)C[C@@H]1NC(=O)[C@@H](NC(=O)[C@@H](N)CC(=O)O)CSSC[C@@H]2NC(=O)[C@@H]3CSSC[C@@H](C(=O)N[C@@H](CCCCN)C(=O)N[C@@H](Cc4ccc(O)cc4)C(=O)N[C@H](C(=O)N[C@@H](Cc4ccccc4)C(N)=O)C(C)C)NC(=O)[C@H](Cc4c[nH]c5ccccc45)NC(=O)[C@H](CCCCN)NC(=O)[C@H](Cc4c[nH]cn4)NC(=O)[C@H]([C@@H](C)O)NC(=O)[C@H](CCCNC(=N)N)NC(=O)[C@H](CO)NC(=O)[C@H](CSSC[C@H](NC(=O)[C@H](CCCCN)NC(=O)[C@H](CCCNC(=N)N)NC(=O)[C@H](Cc4ccccc4)NC(=O)CNC(=O)CNC1=O)C(=O)N[C@@H](CCC(=O)O)C(=O)N1CCC[C@H]1C(=O)N[C@@H](CC(=O)O)C(=O)N[C@@H](CC(N)=O)C(=O)N[C@@H](CC(=O)O)C(=O)N[C@@H](CCCCN)C(=O)N3)NC(=O)[C@H](C(C)C)NC(=O)[C@H](CC(C)C)NC(=O)[C@H](CC(N)=O)NC(=O)[C@@H]1CCCN1C(=O)[C@H](CCCNC(=N)N)NC2=O` [compound 754] (H-DCLGGFRKCEPDNDKCCRPNLVCSRTHKWCKYVF-NH2; disulfide 2-17, 9-23, 16-30), the IC50 in test [1] came to 0.35 µM; in test [2] it was 34.2 µM; in test [3], 0.33 µM.

Take `CC[C@H](C)[C@@H]1NC(=O)[C@@H]2CSSC[C@@H]3NC(=O)[C@H](C(C)C)NC(=O)[C@H](CC(C)C)NC(=O)[C@H](CC(N)=O)NC(=O)[C@@H]4CCCN4C(=O)[C@H](CCCNC(=N)N)NC(=O)[C@H](CSSC[C@H](NC(=O)[C@@H](N)CC(=O)O)C(=O)N[C@@H](CC(C)C)C(=O)NCC(=O)NCC(=O)N[C@@H](Cc4ccccc4)C(=O)N[C@@H](CCCNC(=N)N)C(=O)N[C@@H](CCCCN)C(=O)N2)NC(=O)[C@H](CSSC[C@@H](C(=O)N[C@@H](CCCCN)C(=O)N[C@@H](Cc2ccc(O)cc2)C(=O)N[C@H](C(=O)N[C@@H](Cc2ccccc2)C(N)=O)C(C)C)NC(=O)[C@H](Cc2c[nH]c4ccccc24)NC(=O)[C@H](CCC(=O)O)NC(=O)[C@H](Cc2c[nH]cn2)NC(=O)[C@H]([C@@H](C)O)NC(=O)[C@H](CCCNC(=N)N)NC(=O)[C@H](CO)NC3=O)NC(=O)[C@H](CCCCN)NC(=O)[C@H](CC(=O)O)NC(=O)[C@H](CC(N)=O)NC(=O)[C@H](CC(=O)O)NC(=O)[C@@H]2CCCN2C1=O` [compound 755] (H-DCLGGFRKCIPDNDKCCRPNLVCSRTHEWCKYVF-NH2; disulfide 2-17, 9-23, 16-30): the IC50 was over 5 µM in test [1], 15.3 µM in test [2] and over 5 µM in test [3].

For `C#CCCC(=O)N[C@@H](CC(=O)O)C(=O)N[C@H]1CSSC[C@@H]2NC(=O)[C@@H]3CSSC[C@@H](C(=O)N[C@@H](CCCCN)C(=O)N[C@@H](Cc4ccc(O)cc4)C(=O)N[C@H](C(=O)N[C@@H](Cc4ccccc4)C(N)=O)C(C)C)NC(=O)[C@H](Cc4c[nH]c5ccccc45)NC(=O)[C@H](CCCNC(=N)N)NC(=O)[C@H](Cc4c[nH]cn4)NC(=O)[C@H]([C@@H](C)O)NC(=O)[C@H](CCCNC(=N)N)NC(=O)[C@H](CO)NC(=O)[C@H](CSSC[C@H](NC(=O)[C@H](CCCCN)NC(=O)[C@H](CCCNC(=N)N)NC(=O)[C@H](Cc4ccccc4)NC(=O)[C@H](C)NC(=O)CNC(=O)[C@H](CC(C)C)NC1=O)C(=O)N[C@@H]([C@@H](C)CC)C(=O)N1CCC[C@H]1C(=O)N[C@@H](CC(=O)O)C(=O)N[C@@H](CC)C(=O)N[C@@H](CC(=O)O)C(=O)N[C@@H](CCCCN)C(=O)N3)NC(=O)[C@H](C(C)C)NC(=O)[C@H](CC(C)C)NC(=O)[C@H](CC(N)=O)NC(=O)[C@@H]1CCCN1C(=O)[C@H](CCCNC(=N)N)NC2=O` [compound 756] (Pent4ynoyl-DCLGAFRKCIPD[Abu]DKCCRPNLVCSRTHRWCKYVF-NH2; disulfide 2-17, 9-23, 16-30), the IC50 turned out to be 0.18 µM in test [1], 44.4 µM in test [2] and 0.26 µM in test [3].
